Experimental data published in patent US11390629B2, “1,5-disubstituted 1,2,3-triazoles are inhibitors of Rac/Cdc42 GTPases” (UNIVERSITY OF PUERTO RICO, priority 2016, dated 2022).
“Also recorded” adds a separate entry of the source.

How the values were obtained:
[1] = test system: c-Myc, Bcl-XL, Bcl-2, BAD; assay: Expression of oncogenes and survival proteins, MDA-MB-435 cells; assay type: cell-based, human; details: 150 nM, 24 h
Description: Studies from a number of cancer types have shown that Rac/Cdc42/PAK signaling can induce cell survival and evade apoptosis. Therefore, the decreased cell viability and increased apoptosis by MBQ-167, at concentrations that inhibit both Rac and Cdc42, is predicted to be due to dual inhibition of Rac and Cdc42 function.

[2] = test system: GFP-MDA-MB-231 mammary fat pad tumors; assay: Mammary fat pad tumor growth, GFP-MDA-MB-231 cells in SCID mice; details: 50 days
[3] = test system: Rac; assay: Rac activation pulldown (p21-binding domain of PAK) and western blot, MDA-MB-231 cells; assay type: cell-based, human; details: for decrease in Rac activation: 250 nM, 24 h; for inhibition in Rac activity: 250 or 500 nM, 6 h
[4] = test system: STAT3; assay: Western blot of STAT3 phosphorylation (Y705); assay type: cell-based, human; details: 24 h, attached and detached MDA-MB-231 and GFP-HER2-BM cells
Description: FIGS. 12A, 12B. Effect of MBQ-167 on STAT3 activation and cell migration in GFP-HER2-BM metastatic cancer cells.

[5] = Toxicity observation: mouse weight and phenotype; assay type: in vivo, mice; details: 65-day study, 1 and 10 mg/kg BW; listed as MBQ-167
Description: The mice from this study were also examined once a week for potential toxicity. […] At necropsy, livers were harvested, lysed and subjected to liver enzyme assays as a test for potential toxic effects.

[6] = test system: Saccharomyces cerevisiae (expresses only Cdc42); assay: Yeast bud polarity and growth; details: 100 microM
[7] = test system: Rac
[8] = test system: PAK1 and PAK4; assay: Western blot of PAK activity, NCI-N87 gastric cancer cells; assay type: cell-based, human; details: NCI-N87, 250 or 500 nM; listed as MBQ-167
Description: FIGS. 8A, 8B. The effect of MBQ-167 on survival and PAK activity in NCI-N87 gastric cancer cells.

[9] = test system: MDA-MB-231 cells; assay: Transwell cell migration assay, MDA-MB-231; details: 250 and 500 nM, attached population
[10] = test system: Rho; assay: Rho activation pulldown (Rhotekin), GFP-HER2-BM cells; details: 24 h, listed as MBQ-167
[11] = test system: GFP-HER2-BM cells; assay: Cell viability assay (CellTiter 96 / MTT), GFP-HER2-BM; assay type: cell-based; details: Homo sapiens, 120 h
Description: Effect of MBQ-167 on cell survival.

[12] = test system: PAK; assay: Western blot of PAK activity, MCF-7 cells; assay type: cell-based, human; details: MCF-7, 250 nM, 24 h; listed as MBQ-167
[13] = test system: PAK1 and PAK2; assay: Western blot of PAK signaling (p-PAK, p-LIMK, p-cofilin), MDA-MB-231; assay type: cell-based, human; details: for reduction of PAK activity compared to vehicle: MDA-MB-231 and GFP-HER2-BM
Description: To investigate the effect of MBQ-167 on Rac/Cdc42 signaling, its effect on the major Rac/Cdc42 downstream effector PAK was investigated. The phosphorylation status of several PAK residues was analyzed by western blotting, as a measure of its activity. At 250 nM, 24 h treatment with MBQ-167 inhibited PAK1 and PAK2 phosphorylation at the T423/T402 and S199/S192 residues in the detached population of MDA-MB-231 cells. […] Even though PAK1^T423 phosphorylation was not inhibited in the attached cells, the reduction in the homologous PAK2 phosphorylation sites indicates a preferential inhibition of PAK2 in the attached cells (FIGS. 4A-1, 4A-2, FIG. 4B-1). […] The decrease in cofilin phosphorylation was evident after 12 h following 250 nM MBQ-167 (FIG. 4C), indicating activation of cofilin, which account for the observed actin cytoskeletal restructuring (FIG. 2B). […] Similarly, in the NCI-N87 human metastatic gastric cancer cell line, MBQ-167 inhibited the viability and the activity of PAK isoforms PAK1 and PAK4, which have been implicated in gastric cancer malignancy (FIG. 8B).

[14] = test system: GFP-HER2-BM, MDA-MB-468, Hs578t, Mia-PaCa-2, SKOV3, AGS, NCI-N87, SH-SY5Y cells; assay: Bright field cell phenotype, other mesenchymal cancer cell lines; assay type: cell-based, human; details: 250 or 500 nM, 24 h
Description: FIG. 9. Human cancer cell phenotype following MBQ-167 treatment. Triple negative breast cancer (MDA-MB-468), aggressive pancreatic (Mia PaCa-2), ovarian (SKVO3), gastric carcinoma (AGS and NCI-N87) cell lines and a neuroblastoma (SH-SY5Y) cell line were treated with 0, 250 or 500 nM MBQ-167 for 24 h; Representative bright field images are shown for each cell line.
Human breast cancer cells were visualized by bright field microscopy following MBQ-167 treatment. At ≥100 nM, starting at six hours, MBQ-167 induced a loss of polarity in metastatic breast cancer cells. […] On the other hand, non-cancer mammary epithelial MCF10A and epithelial breast cancer MCF-7 cells were resistant to MBQ-167 and remained polarized and attached to each other and the substratum (FIG. 2A).

[15] = Liver enzyme assays (ALP, ALT) after necropsy; assay type: in vivo, nude mice; details: listed as MBQ-167
Description: . Mammary fatpad tumors were established in nude mice by inoculating 5×10^5 GFP-HER2-BM cells; […]; FIG. 6B, Representative fluorescence micrographs of lungs, spleens, and kidneys from vehicle or MBQ-167 treated mice following necropsy; […]; Following necropsy, livers were harvested, lysed and subjected to FIG. 6D, ALP activity or FIG. 6E, ALT activity assays; N=4, error bars represent ±S.E.M.
The mice from this study were also examined once a week for potential toxicity. […]. At necropsy, livers were harvested, lysed and subjected to liver enzyme assays as a test for potential toxic effects. […]. Frozen stored livers were thawed and homogenized to measure alkaline phosphatase (ALP) and alanine transaminase (ALT) activities using colorimetric assay kits from Abeam and Cayman Chemicals respectively, as per manufacturer's instructions.

[16] = target: Cdc42 (Homo sapiens, UniProt P60953); assay: Cdc42 activation pulldown (p21-binding domain of PAK) and western blot, MDA-MB-231 cells; assay type: cell-based; design: endogenous in cells; host or cells: MDA-MB-231; details: 24 h, detached cells
Chain of Cdc42 (P60953 whole entry, the tested form may be a part): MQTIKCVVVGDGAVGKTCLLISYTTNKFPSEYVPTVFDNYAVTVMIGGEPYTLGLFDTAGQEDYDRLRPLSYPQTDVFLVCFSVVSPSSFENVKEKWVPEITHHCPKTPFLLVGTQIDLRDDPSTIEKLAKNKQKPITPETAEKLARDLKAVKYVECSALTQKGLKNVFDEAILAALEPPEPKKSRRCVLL

In the case of `CCn1c2ccccc2c2cc(-n3nncc3-c3ccccc3)ccc21` [I-1, 9-ethyl-3-(5-phenyl-1H-1,2,3-triazol-1-yl)-9H-carbazole], the “expression of c-Myc, Bcl-XL, Bcl-2” value [1] is reported as “reduced expression”, the “pro-apoptotic protein BAD” value [1] is reported as “concomitant increase” and the “inhibition of tumor growth” value ([2]; 1.0 mg/kg BW i.p. 3x a week) is reported as 90%. The “inhibition of tumor growth” value ([2]; 5.0 mg/kg BW i.p. 3x a week) was 95%, the “inhibition of tumor growth” value ([2]; 10 mg/kg BW i.p. 3x a week) was 100% and the “decrease in Rac activation” value ([3]; attached cells) was roughly 25%. The “decrease in Rac activation” value ([3]; detached cells) was roughly 75%, the “inhibition in Rac activity” value ([3]; attached cell population) was 10-20% and the “inhibition in Rac activity” value ([3]; detached population) was 40-50%. The “effect on STAT3 activity” value [4] was “decreased STAT3 activity”, the “weight loss or phenotypic changes” value [5] was “did not show any significant weight loss or phenotypic changes; also recorded: does not exert toxic effects” and the “effect on yeast bud polarity and growth” value [6] was “inhibited yeast bud polarity and growth”. For the same molecule, the “Rac Activity (Active Rac/Total Rac)” value ([7]; 250 nM, 24 h, MCF-7 cells, vehicle = 1.0) was 1.075 ± 0.3, the “effect on Rac activity” value ([7]; MCF-7, 250 nM, listed as MBQ-167) was “insensitive; also recorded: does not affect” and the “effect on PAK activity (phospho-PAK)” value [8] was “inhibits both PAK1 and PAK4 activities; also recorded: significantly decreases”. The “reduction of directed migration” value [9] was 60-70%, the “effect on Rho activity” value [10] was “did not affect; also recorded: does not affect” and the GI50 [11] was 150 nM. The “effect on PAK activity” value [12] was “did not affect; also recorded: does not inhibit”, the “LIMK (Y507/T508) and cofilin (S3) phosphorylation” value ([13]; 250 nM) was “both decreased” and the “phosphorylation of PAK1 S144” value ([13]; 250 nM, 24 h) was “dramatic increase”. For the same molecule, the “PAK1 and PAK2 phosphorylation at T423/T402 and S199/S192” value ([13]; 250 nM, 24 h, detached population) was “inhibited”, the “reduction of PAK activity compared to vehicle” value ([13]; attached population) was roughly 25% and the “reduction of PAK activity compared to vehicle” value ([13]; detached cells) was 90%. For the same molecule, the “cell rounding and detachment phenotype” value [14] was “induced this phenotype”, the “liver ALT activity” value ([15]; 10 mg/kg BW) was “significantly increased; also recorded: increases” and the “liver ALP activity” value ([15]; 1 and 10 mg/kg BW) was “does not significantly affect”. The “inhibition of Cdc42 activity” value ([16]; 250 nM, listed as MBQ-167, […]) was 85% and the inhibition at […] ([16]; MDA-MB-231, 250 nM) was 78%.
